Among the data in patent publication EP0046242A1, “Anti-tumor agent comprising an organosilicon compound” (Shin-Etsu Chemical Co., Ltd., priority 1980, dated 1982) are IC50, inhibition in vivo and Tumor inhibiting efficiency values, retold here.

Converted amounts (≈) assume the structure as drawn. Structures can show the parent of a compound that is named as a salt.

The subject of one experiment is B-16 melanoma cells. The experiment in a line: In vitro tissue culture test of tumor cell growth inhibition. The experiment is classed as cell-based. As to conditions: Mus musculus, B16, Eagle's medium with 10 % calf blood plasma, 37 °C, compound added after 24 hours, three further days. The procedure:
(§1) An in vitro test by tissue culture was undertaken for the activity of 2-(2-aminoethylthio)ethyl trimethyl silane against the growth of three kinds of tumor cells. The tumor cells used in the test were Ehrlich's cancer cells, Lewis lung cancer cells and B-16 melanoma cells and each kind of the above tumor cells was cultured in several Eagle's nutrient media admixed with 10 % of calf blood plasma at 37 °C.
(§2) After 24 hours from the start of the culture, 2-(2-amino- ethylthio)ethyl trimethyl silane was added to each of the nutrient media in a different concentration and, after additional three days at the same temperature, the conentration IC50 was determined with which the multiplication of the tumor cells was inhibited in 50 % of the tested groups. The results were as shown below
In the case of `C[Si](C)(C)CCSCCN` [Me3Si-(-CH2-)2-S-(-CH2-)2-NH2, 2-(2-aminoethylthio)ethyl trimethyl silane], the IC50 (usually the midpoint of a concentration-inhibition curve) was 18 µg/mL (≈ 101 µM).

The subject of a further experiment is Ehrlich's cancer cells. The description is as above. The experiment is classed as cell-based. As to conditions: Eagle's medium with 10 % calf blood plasma, 37 °C, compound added after 24 hours, three further days. The procedure: as §1, §2
Regarding `C[Si](C)(C)CCSCCN` [Me3Si-(-CH2-)2-S-(-CH2-)2-NH2, 2-(2-aminoethylthio)ethyl trimethyl silane], the IC50 is 12 µg/mL (≈ 67.6 µM).

The test system of another experiment is Lewis lung cancer cells. The description is as above. The experiment is classed as cell-based. As to conditions: Lewis lung carcinoma, Eagle's medium with 10 % calf blood plasma, 37 °C, compound added after 24 hours, three further days. Here is the method:
as §1, §2
The compound `C[Si](C)(C)CCSCCN` [Me3Si-(-CH2-)2-S-(-CH2-)2-NH2, 2-(2-aminoethylthio)ethyl trimethyl silane] displayed an IC50 of 14 µg/mL (≈ 78.9 µM).

Another experiment deals with B-16 melanoma cells implanted in mice. The experiment is described as follows: Animal test of growth inhibition of implanted B-16 melanoma in mice. The experiment is classed as in vivo. As to conditions: Mus musculus, B16, read-out: Tumor inhibiting efficiency, female BDF1-JCR mice, 1 x 10^5 B-16 cells subcutaneously; oral, 100 mg once a day for 5 days from second day; tumor weight vs control at day 14. The procedure:
Animal tests were conducted to examine the activity of several compounds including 2-(2-aminoethylthio)ethyl trimethyl silane in the inhibiting power against the growth of the B-16 melanoma cells implanted in mice as the test animals.
Thus each of 12 female mice of the BDF1-JCR lineage was implanted subcutaneously with 1 x 10^5 cells of the B-16 black tumor.
Six of the thus treated mice were bred as such as a control group and the other six mice as the test group were orally administrated once a day with 100 mg of the test compound for 5 days beginning with the second day of the implantation.
The results of the tests were expressed by the tumor inhibiting efficiency in % calculated by the following equation, in which W^1 is the averaged tumor weight per mouse in the control group and W^2 is the averaged tumor weight per mouse in the test group. [formula]
For comparison, similar animal tests were undertaken with FT-207 as a derivative of 5-fluorouracil with the dose amount at one time increased to 130 mg.
With `C[Si](C)(C)CCSCCN` [Me3Si-(-CH2-)2-S-(-CH2-)2-NH2, 2-(2-aminoethylthio)ethyl trimethyl silane], the inhibition in vivo at 100 mg amounted to 95.6%. As for `C=C[Si](C)(C)CCSCCN` [Vi·Me2Si-(-CH2-)2-S-(-CH2-)2-NH2, 2-(2-aminoethylthio) ethyl vinyl dimethyl silane], the inhibition in vivo at 100 mg was found to be 95.7%. As for `CCN(CC)CSCC[Si](CC)(CC)CC` [Et3Si-(-CH2)2-S-CH2-NEt2], the inhibition in vivo at 100 mg came out at 90.5%.

For the compound `CCN(CC)CSC[Si](C)(CC)CC` [Me·Et2Si-CH2-S-CH2-NEt2], the inhibition in vivo at 100 mg was found to be 86.5%. Regarding `CC[Si](CC)(CC)CCSCCN` [Et3Si-(-CH2-)2-S-(-CH2-)2-NH2, 2-(2-aminoethylthio)ethyl triethyl silane], the inhibition in vivo at 100 mg stood at 90.8%. Regarding `CCN(CC)CSCCC[Si](CC)(CC)CC` [Et3Si-(-CH2-)3-S-CH2-NEt2], the inhibition in vivo at 100 mg is 84.4%. Same read-out and setting: the figure for `CCN(CC)CSC[Si](CC)(CC)CC` [Et3Si-CH2-S-CH2-NEt2] is 81.7%.

For the compound `C[Si](C)(CCSCCN)CCC(F)(F)F` [(CF3CH2CH2)Me2Si-(CH2-)2-S-(-CH2-)2-NH2, 2-(2-aminoethylthio)-ethyl 3,3,3-trifluoropropyl dimethyl silane], the inhibition in vivo at 100 mg came out at 96.8%.

Consider `CCN(CC)CSCC[Si](C)(CC)CC` [Me·Et2Si-(-CH2-)2-S-CH2-NEt2], for which the inhibition in vivo at 100 mg came out at 86.9%.

Consider `CCN(CC)CCSCCC[Si](CC)(CC)CC` [Et3Si-(-CH2-)3-S-(-CH2-)2-NEt2], for which the inhibition in vivo at 100 mg came out at 76.7%.

As for `C[Si](C)(C)CCCSCCN` [Me3Si-(-CH2-)3-S-(-CH2-)2-NH2, 3-(2-aminoethylthio)propyl trimethyl silane], the inhibition in vivo at 100 mg was 93.9%. For the compound `C[Si](C)(CCSCCN)c1ccccc1` [Ph·Me2Si-(-CH2-)2-S-(-CH2-)2-NH2, 2-(2-aminoethylthio)ethyl phenyl dimethyl silane], the inhibition in vivo at 100 mg amounted to 82.6%. Same read-out and setting: next, `CCN(CC)CSCC[Si](C)(C)C` [Me3Si-(-CH2-)2-S-CH2-NEt2]: 89.2%; `CC[Si](CC)(CC)CSCCN` [Et3Si-CH2-S-(-CH2-)2-NH2, (2-aminoethylthio)methyl triethyl silane]: 91.1%.

Consider `CCN(CC)CSCCC[Si](C)(C)C` [Me3Si-(-CH2-)3-S-CH2-NEt2], for which the inhibition in vivo at 100 mg turned out to be 83.9%.

Still in this experiment, the particulars now being: comparison; female BDF1-JCR mice, B-16 cells subcutaneously; dose at one time 130 mg; tumor weight vs control at day 14.
In turn, `O=c1[nH]c(=O)n(C2CCCO2)cc1F` (stereo not drawn) [FT-207, reference compound] registered a Tumor inhibiting efficiency of 20.5%.

Staying with this experiment, now noted: female BDF1-JCR mice, 1 x 10^5 B-16 cells subcutaneously; oral, 100 mg once a day for 5 days from second day; tumor weight vs control at day 14.
In the case of `C[Si](C)(C)CCSCCN` [Me3Si-(-CH2-)2-S-(-CH2-)2-NH2·CH3COOH], the Tumor inhibiting efficiency is 95.0%. On the same count and under the same terms, the figure for `C[Si](C)(C)CCSCCN` [Me3Si-(-CH2-)2-S-(-CH2-)2-NH2·HCl, hydrochloride of 2-(2-aminoethylthio)ethyl trimethyl silane] is 97.9%.
